Test system: Fusarium nivale
Experiment: Fusarium nivale test (wheat)/seed treatment
Type: in vivo
Settings: seed dressing of infected wheat seed, evaluated three weeks after sowing, 0% = control, 100% = no infection
Method: Fusarium nivale Test (Wheat)/Seed Treatment The active compounds or the active compound combination are/is applied using commercially available liquid seed dressings of the individual active compounds or the active compound combination. For seed dressing, the infected seed is shaken with the seed dressing in question in a closed plastic container for 3 minutes. For each test, in two seed trays in each case 100 wheat corns are sown at a depth of 3 cm in sand and covered with a layer of fine particulate clay. The seed trays are then placed in a greenhouse at a temperature of about 10° C. and a relative atmospheric humidity of 95% and exposed to light for 15 hours per day. Three weeks after sowing, the plants are evaluated for symptoms. The efficacy is expressed in %. 0% means an efficacy which corresponds to that of the control, whereas an efficacy of 100% means that no infection is observed.

SMILES	Efficacy in % (5 g active compound per 100 kg of seed) [%]	Efficacy in % (3 g active compound per 100 kg of seed) [%]
OC(Cc1ccccc1Cl)(Cn1nc[nH]c1=S)C1(Cl)CC1 (centres unmarked) [prothioconazole, 2-[2-(1-chlorocyclopropyl)-3-(2-chlorophenyl)-2-hydroxypropyl]-2,4-dihydro[1,2,4]-triazole-3-thione]	57	–
CC(C)(C)C(O)(CCc1ccc(Cl)cc1)Cn1cncn1 (centres unmarked) [tebuconazole]	–	11

Source: US20070054804A1, “Use of fungicides for disinfecting cereal seed” (BAYER CROPSCIENCE AKTIENGESELLSCHAFT, priority 2003, published 2007)
